Read-outs that look alike come from different tables or passages of the source. Where only a bound is given, the exact number is not on record here.

Broadly, the IC50 is the concentration that gives 50% inhibition.

The target in one assay is T1, CCK receptor (pancreas) (Rattus norvegicus, UniProt P30551).
T1 construct: The whole pancreas was dissected free of fat tissue and was homogenized; from tissue; host or cells: rat pancreas membranes (Sprague-Dawley)
T1 sequence (P30551 1-444): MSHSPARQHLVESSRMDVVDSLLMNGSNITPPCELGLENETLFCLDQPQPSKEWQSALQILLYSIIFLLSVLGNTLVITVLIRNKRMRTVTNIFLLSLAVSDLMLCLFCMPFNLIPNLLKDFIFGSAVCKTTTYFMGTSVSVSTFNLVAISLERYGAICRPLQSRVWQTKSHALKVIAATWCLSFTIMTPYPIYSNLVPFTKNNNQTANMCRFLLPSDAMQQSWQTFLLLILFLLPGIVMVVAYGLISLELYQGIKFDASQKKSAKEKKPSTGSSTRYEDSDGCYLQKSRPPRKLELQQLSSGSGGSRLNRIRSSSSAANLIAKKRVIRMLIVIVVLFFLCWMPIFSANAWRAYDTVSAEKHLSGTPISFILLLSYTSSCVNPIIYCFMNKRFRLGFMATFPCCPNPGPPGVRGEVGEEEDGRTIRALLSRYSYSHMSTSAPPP
As to the kind of experiment: CCK Receptor Binding (Pancreas): inhibition of ^125 I-CCK-33 binding. More on the design: species or system Male Sprague-Dawley rats. The conditions noted are these: rat pancreas membranes, ^125 I-CCK-33, 37° C., 30 minutes. An outline of the steps:
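Rat (male Sprague-Dawley) pancreatic membranes in 50 mM Tris HCl pH 7.7 with DTT, bacitracin, PMSF and o-phenanthroline; ^125I-Bolton Hunter-labelled CCK-33 as radioligand. Incubation 30 min at 37° C, separation by centrifugation, pellet gamma-counted; Scatchard analysis by diluting ^125I-CCK-33 with increasing CCK-33.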

The target of assay [1] is T2, Gastrin receptor (gastric glands) (Cavia porcellus, UniProt H0VZC5).
T2 construct: The washed guinea pig gastric glands prepared as above were resuspended; from tissue; host or cells: guinea pig gastric mucosal glands (male Hartley)
T2 sequence (H0VZC5 1-426): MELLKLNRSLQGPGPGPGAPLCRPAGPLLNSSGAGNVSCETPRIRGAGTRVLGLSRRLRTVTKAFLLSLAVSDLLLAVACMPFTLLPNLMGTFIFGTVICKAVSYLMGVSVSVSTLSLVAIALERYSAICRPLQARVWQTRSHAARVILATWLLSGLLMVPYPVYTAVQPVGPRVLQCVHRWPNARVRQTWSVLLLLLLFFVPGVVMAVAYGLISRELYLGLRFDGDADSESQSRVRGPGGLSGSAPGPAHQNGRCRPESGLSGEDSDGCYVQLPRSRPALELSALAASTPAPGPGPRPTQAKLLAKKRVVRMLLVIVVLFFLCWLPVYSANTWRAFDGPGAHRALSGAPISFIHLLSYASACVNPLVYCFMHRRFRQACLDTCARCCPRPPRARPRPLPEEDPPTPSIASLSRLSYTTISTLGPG
As to the kind of experiment: Gastrin Receptor Binding in Guinea Pig Gastric Glands. Particulars: 25° C., 30 minutes. More on the design: species or system guinea pig (male Hartley).

For assay [2], the target named is T3, CCK receptor (brain, cerebral cortex) (Cavia porcellus, UniProt H0VZC5).
T3 construct: Cerebral cortex was dissected and used as a receptor source; from tissue; host or cells: guinea pig cerebral cortex membranes (male Hartley)
T3 sequence (H0VZC5 1-426): T2 sequence (H0VZC5 1-426)
As to the kind of experiment: biochemical. In kind it is binding, Male Hartley guinea pigs. Particulars: guinea pig cerebral cortex, ^125 I-CCK-33, 25° C., 2 hours. An outline of the steps: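 Guinea pig cerebral cortex homogenate as receptor source, with radiolabeled CCK-33 in HEPES buffer containing MgCl2, bacitracin, EGTA and 0.4% BSA. Incubation 2 h at 25°C; bound ligand pelleted by centrifugation and gamma-counted.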

The mark [3] stands for this setting: ^125 I-gastrin, read-out: IC50 ^125 I-Gastrin Gastric Glands.
[4] abbreviates: read-out: IC50 ^125 I-CCK Brain.
Where [5] appears, read: read-out: IC50 ^125 I-CCK Pancreas.
Where [6] appears, read: IC50 ^125 I-Gastrin Gastric Glands.

Consider `CCN(CC)C(=O)CN1C(=O)C(NC(=O)Nc2ccccc2Cl)N=C(c2ccccc2)c2ccccc21` (stereo not drawn) [Example 286, 3-{[((2-Chlorophenyl)amino)carbonyl]amino}-N,N-diethyl-2,3-dihydro-2-oxo-5-phenyl-1H-1,4-benzodiazepine-1-acetamide], for which the figures for the IC50 (on CCK receptor (pancreas) (IC50 ^125 I-CCK Pancreas); in assay [1] (setting [3]); in assay [2] (setting [4])) were more than 100 nM, 1.5 nM and 3.8 nM, respectively.

As to `Cc1cccc2c1NC(=O)C(NC(=O)c1cc3ccccc3[nH]1)N=C2c1ccccc1` (stereo not drawn) [Example 287, 3-N-(2,3-Dihydro-9-methyl-2-oxo-5-phenyl-1H-1,4-benzodiazeoin-3-yl)-1H-indole-2-carboxamide], the IC50 at CCK receptor (pancreas) (IC50 ^125 I-CCK Pancreas) turned out to be 0.74 nM; in assay [1] (setting [3]), 950 nM; in assay [2] (setting [4]), 1000 nM.

For `COc1cccc(NC(=O)NC2N=C(c3ccccc3)c3cccc(C)c3NC2=O)c1` (stereo not drawn) [Example 288, N-(3-Methoxyphenyl)-N'-(2,3-dihydro-9-methyl-2-oxo-5-phenyl-1H-1,4-benzodiazepin-3-yl)-urea], the IC50 stood at 75 nM at CCK receptor (pancreas) (IC50 ^125 I-CCK Pancreas), 54 nM in assay [1] (setting [3]) and 42 nM in assay [2] (setting [4]).

In the case of `Cc1cccc2c1N(C)C(=O)C(NC(=O)c1cc3ccccc3[nH]1)N=C2c1ccccc1` (stereo not drawn) [Example 289, 3-N-(2,3-Dihydro-1,9-dimethyl-2-oxo-5-phenyl-1H-1,4-benzodiazepin-3-yl)-1H-indole-2-carboxamide], the IC50 is 0.1 nM at CCK receptor (pancreas) (IC50 ^125 I-CCK Pancreas), 660 nM in assay [1] (setting [3]) and 89 nM in assay [2] (setting [4]).

As for `COc1cccc(NC(=O)NC2N=C(c3ccccc3)c3cccc(C)c3N(C)C2=O)c1` (stereo not drawn) [Example 290, N-(3-Methoxyphenyl)-N'-(2,3-dihydro-1,9-dimethyl-2-oxo-5-phenyl-1H-1,4-benzodiazepin-3-yl)-urea], the IC50 on CCK receptor (pancreas) (IC50 ^125 I-CCK Pancreas) is 2 nM; in assay [1] (setting [3]) it was 8.7 nM; in assay [2] (setting [4]), 15 nM.

In the case of `Cc1ccc(C2=NC(NC(=O)c3cc4ccccc4[nH]3)C(=O)N(C)c3ccccc32)cc1` (stereo not drawn) [Example 291, 3-N-(2,3-Dihydro-1-methyl-2-oxo-5-(p-tolyl)-1H-1,4-benzodiazepin-3-yl)-1H-indole-2-carboxamide], the IC50 at CCK receptor (pancreas) (IC50 ^125 I-CCK Pancreas) stood at 0.08 nM; in assay [1] (setting [3]) it was 710 nM; in assay [2] (setting [4]), 380 nM.

For the compound `COc1cccc(NC(=O)NC2N=C(c3ccc(C)cc3)c3ccccc3N(C)C2=O)c1` (stereo not drawn) [Example 292, N-(3-Methoxyphenyl)-N'-(2,3-dihydro-1-methyl-2-oxo-5-(p-tolyl)-1H-1,4-benzodiazepin-3-yl)-urea], the IC50 on CCK receptor (pancreas) (IC50 ^125 I-CCK Pancreas) was found to be 1 nM; in assay [1] (setting [3]) it was 11.5 nM; in assay [2] (setting [4]), 3.5 nM.

For `Cc1ccc(NC(=O)N[C@@H]2N=C(c3ccccc3)c3ccccc3N(C)C2=O)cc1` [Example 293, (R)-N-(2,3-Dihydro-1-methyl-2-oxo-5-phenyl-1H-1,4-benzodiazepin-3-yl)-N'-(4-methylphenyl)-urea], the IC50 at CCK receptor (pancreas) (setting [5]) turned out to be 3100 nM; in assay [1] (setting [6]) it was 2.5 nM; in assay [2] (IC50 ^125 I-CCK Brain), 6.5 nM.

`Cc1ccc2c(c1)N(C)C(=O)C(NC(=O)c1cc3ccccc3[nH]1)N=C2c1ccccc1` (stereo not drawn) [Example 294, 3-N-(2,3-Dihydro-1,8-dimethyl-2-oxo-5-phenyl-1H-1,4-benzodiazepin-3-yl)-1H-indole-2-carboxamide]: the IC50 amounted to 0.1 nM on CCK receptor (pancreas) (IC50 ^125 I-CCK Pancreas), 40 nM in assay [1] (setting [3]) and 38 nM in assay [2] (setting [4]).

As for `COc1cccc(NC(=O)NC2N=C(c3ccccc3)c3ccc(C)cc3N(C)C2=O)c1` (stereo not drawn) [Example 295, N-(3-Methoxyphenyl)-N'-(2,3-dihydro-1,8-dimethyl-2-oxo-5-phenyl-1H-1,4-benzodiazepin-3-yl)-urea], the results for the IC50 (on CCK receptor (pancreas) (IC50 ^125 I-CCK Pancreas); in assay [1] (setting [3]); in assay [2] (setting [4])) were 3 nM, 34 nM and 15 nM, respectively.

Regarding `CN1C(=O)[C@H](NC(=O)Nc2cccc(Cl)c2)N=C(c2ccccc2)c2ccccc21` [Example 296, (R)-N-(2,3-Dihydro-1-methyl-2-oxo-5-phenyl-1H-1,4-benzodiazepin-3-yl)-N'-(3-chloroohenyl)-urea], the IC50 at CCK receptor (pancreas) (setting [5]) came out at 290 nM; in assay [1] (setting [6]) it was 2.2 nM; in assay [2] (IC50 ^125 I-CCK Brain), 7.5 nM.

As to `CN1C(=O)C(CC(=O)Nc2ccc(Cl)cc2)N=C(c2ccccc2)c2ccccc21` (stereo not drawn) [Example 297, N-(4-Chlorophenyl)-2,3-dihydro-1-methyl-2-oxo-5-phenyl-1H-1,4-benzodiazepine-3-acetamide], the figures for the IC50 (on CCK receptor (pancreas) (IC50 ^125 I-CCK Pancreas); in assay [1] (setting [3]); in assay [2] (setting [4])) were 1800 nM, 5200 nM and 3700 nM, respectively.

(Values after patent US4820834A, “Benzodiazepine analogs” (priority 1987, dated 1989).)
